Data as given in US20110275559A1, “Long-Acting Y2 and/or Y4 Receptor Agonists” (Novo Nordisk A/S, priority 2008, published 2011).
Read-outs that look alike come from different tables or passages of the source. Each block holds one compound with its values, some of them ahead of it. *1 amine or outer side, *2 acyl side, *3 side chain or, on linkers, in order; H or OH if unused. Where a SMILES comes first, the peptide text is derived from it. Where no end group is shown, it is not given here. Side-chain parts run from the residue outwards. The star is where a group is joined. C20 diacid = O=C(O)CCCCCCCCCCCCCCCCCCC(=O)*; γGlu = O=C(O)[C@H](CCC(=O)[*:2])N[*:1]; Trx = NC[C@H]1CC[C@H](C(=O)O)CC1; AEEA = NCCOCCOCC(=O)O

Experiments:
Y4 receptor = biological target: T1, Y4 receptor (Homo sapiens, UniProt P50391); experiment: Y4 receptor ACTOne based FLIPR assay (cAMP biosensor); format: cell-based
T1 construct: host or cells: ACTOne HEK-293 cells
Description: (§1) ACTOne™ is an easily scaleable cAMP biosensor HTS platform for measurement of Gs and Gi coupled 7™ receptor signalling from BD Biosciences (San Jose, Calif.). The cells express a biosensor developed around a modified rat olfactory cyclic nucleotide gated (CNG) calcium channel—a fairly non-discriminatory ion channel that responds to cAMP and cGMP. The CNG has been engineered to be cAMP selective and thus function as a cAMP responsive biosensor that signals through calcium or membrane potential responsive dyes. Y2 or Y4 receptor expressing ACTOne HEK-293 cells are obtained from BD Biosciences. The cells are loaded with a calcium responsive dye that only distributes in the cytoplasm. Probenecid, an inhibitor of the organic anion transporter is added to prevent the dye from leaving the cell. A phosphodiesterase inhibitor is added to prevent formatted cAMP from being degraded. Isoproterenol (an β1/β2 agonist) is added to activate the adenylate cyclase. When an Y2 or Y4 receptor agonist is added, the adenylate cyclase is inactivated. The decreased calcium concentration in the cytoplasm is then detected as an increase in fluorescence. Together with the test substance, Isoproterenol at a concentration matching EC80, is added to all wells. • The cells are plated out in Greiner 384-well plates. […] The plates are covered with tinfoil to avoid light (the dye can be excited by the daylight, which results in higher baseline and variation). • The FLIPR (FLIPRtetra from Molecular Devices, CA, USA) adds 1 μl sample and 1 μl isoproterenol (0.05 μM final concentration) at the same time. • The fluorescence signal from the wells is measured 330 seconds after sample addition on the FLIPR.

Y2 receptor = biological target: T2, Y2 receptor (Homo sapiens, UniProt P49146); experiment: Y2 receptor ACTOne based FLIPR assay (cAMP biosensor); format: cell-based
T2 construct: host or cells: ACTOne HEK-293 cells
T2 sequence (P49146 1-381): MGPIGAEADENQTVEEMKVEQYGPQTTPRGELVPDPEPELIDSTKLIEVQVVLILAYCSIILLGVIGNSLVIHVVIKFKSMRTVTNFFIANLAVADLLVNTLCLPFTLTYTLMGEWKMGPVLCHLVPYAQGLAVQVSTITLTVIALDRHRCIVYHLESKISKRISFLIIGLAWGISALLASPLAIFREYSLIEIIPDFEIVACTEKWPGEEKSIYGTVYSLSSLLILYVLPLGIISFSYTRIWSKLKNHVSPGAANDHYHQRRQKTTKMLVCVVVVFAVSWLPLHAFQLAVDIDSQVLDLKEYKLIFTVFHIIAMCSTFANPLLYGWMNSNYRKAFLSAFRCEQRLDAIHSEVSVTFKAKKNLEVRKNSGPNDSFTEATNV
Description: as §1

[1] = Mini-pig PK assay (plasma half-life); settings: Göttingen, minipig, iv
Outline: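 Catheterised mini-pigs received compound i.v. at 10 nmol/kg in pH 4.0 phosphate/NaCl/tween vehicle, or alternatively i.v. or s.c. at 1–30 nmol/kg in pH 8.0 K2HPO4/tween. Stabilised plasma was sampled up to 13 days and assayed by LC-MS (LLOQ 2 nM). Half-life came from non-compartmental analysis of individual animal profiles.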

T1 sequence (P50391 whole entry): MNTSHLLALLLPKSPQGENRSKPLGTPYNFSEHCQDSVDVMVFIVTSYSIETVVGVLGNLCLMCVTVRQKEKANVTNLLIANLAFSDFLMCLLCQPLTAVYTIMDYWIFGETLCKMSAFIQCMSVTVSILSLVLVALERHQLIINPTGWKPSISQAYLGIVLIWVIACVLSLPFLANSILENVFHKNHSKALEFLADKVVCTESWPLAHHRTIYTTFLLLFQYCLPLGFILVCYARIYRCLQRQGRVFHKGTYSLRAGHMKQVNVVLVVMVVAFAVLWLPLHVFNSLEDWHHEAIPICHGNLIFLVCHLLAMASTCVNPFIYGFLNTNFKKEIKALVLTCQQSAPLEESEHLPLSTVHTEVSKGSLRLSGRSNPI

Compound: CC[C@H](C)[C@H](NC(=O)[C@H](Cc1ccc(O)cc1)NC(=O)[C@H](CCCNC(=N)N)NC(=O)[C@H](CCCNC(=N)N)NC(=O)[C@H](CC(C)C)NC(=O)[C@H](CC(=O)O)NC(=O)[C@H](C)NC(=O)[C@H](C)NC(=O)[C@H](Cc1ccc(O)cc1)NC(=O)[C@H](CCC(N)=O)NC(=O)[C@H](C)NC(=O)[C@H](CC(C)C)NC(=O)[C@H](CCC(N)=O)NC(=O)[C@H](CCC(=O)O)NC(=O)[C@@H]1CCCN1C(=O)[C@H](CCCCNC(=O)COCCOCCNC(=O)COCCOCCNC(=O)CC[C@H](NC(=O)[C@H]1CC[C@H](CNC(=O)CCCCCCCCCCCCCCCCCCC(=O)O)CC1)C(=O)O)NC(=O)[C@H](C)NC(=O)[C@H](CC(N)=O)NC(=O)[C@H](CC(=O)O)NC(=O)CNC(=O)[C@@H]1CCCN1C(=O)[C@H](Cc1ccc(O)cc1)NC(=O)[C@@H](NC(=O)[C@@H]1CCCN1C(=O)[C@H](CCC(=O)O)NC(=O)[C@H](CC(C)C)NC(=O)[C@@H]1CCCN1C(=O)[C@H](C)N)C(C)C)C(=O)N[C@@H](CC(N)=O)C(=O)N[C@@H](CC(C)C)C(=O)N[C@@H](CC(C)C)C(=O)N[C@H](C(=O)N[C@@H](CCCNC(=N)N)C(=O)N[C@@H](CCC(N)=O)C(=O)N[C@@H](CCCNC(=N)N)C(=O)N[C@@H](Cc1ccc(O)cc1)C(N)=O)[C@@H](C)O [SEQ ID NO: 4] (H-APLEPVYPGDNAK([AEEA-AEEA-γGlu-Trx-C20 diacid])PEQLAQYAADLRRYINLLTRQRY-NH2; N-terminus and C-terminus assumed)
EC50 (Y4 receptor): 18 nM

Compound: CC[C@H](C)[C@H](NC(=O)[C@H](Cc1ccc(O)cc1)NC(=O)[C@H](CCCNC(=N)N)NC(=O)[C@H](CCCNC(=N)N)NC(=O)[C@H](CC(C)C)NC(=O)[C@H](CC(=O)O)NC(=O)[C@H](C)NC(=O)[C@H](C)NC(=O)[C@H](Cc1ccc(O)cc1)NC(=O)[C@H](CCC(N)=O)NC(=O)[C@H](C)NC(=O)[C@H](CC(C)C)NC(=O)[C@H](CCC(N)=O)NC(=O)[C@H](CCC(=O)O)NC(=O)[C@@H]1CCCN1C(=O)[C@H](CCCCNC(=O)COCCOCCNC(=O)COCCOCCNC(=O)CC[C@H](NC(=O)[C@H]1CC[C@H](CNC(=O)CCCCCCCCCCCCCCCCCCC(=O)O)CC1)C(=O)O)NC(=O)[C@H](C)NC(=O)[C@H](CC(=O)O)NC(=O)[C@H](CC(N)=O)NC(=O)CNC(=O)[C@@H]1CCCN1C(=O)[C@H](Cc1ccc(O)cc1)NC(=O)[C@@H](NC(=O)[C@@H]1CCCN1C(=O)[C@H](CCC(=O)O)NC(=O)[C@H](CC(C)C)NC(=O)[C@@H]1CCCN1C(=O)[C@H](C)N)C(C)C)C(=O)N[C@@H](CC(N)=O)C(=O)N[C@@H](CC(C)C)C(=O)N[C@H](C(=O)N[C@H](C(=O)N[C@@H](CCCNC(=N)N)C(=O)N1CCC[C@H]1C(=O)N[C@@H](CCCNC(=N)N)C(=O)N[C@@H](Cc1ccc(O)cc1)C(N)=O)[C@@H](C)O)C(C)C [SEQ ID NO: 14, N-epsilon13-[2-(2-{2-[2-(2-{2-[(S)-4-Carboxy-4-({trans-4-[(19-carboxynonadecanoylamino)methyl]cyclohexanecarbonyl}amino)butyrylamino]-eth-oxy}ethoxy)acetylamino]ethoxy}ethoxy)acetyl][Asn10,Asp11,Lys13,Leu17,Leu30,Val31]hPP(1-36)] (H-APLEPVYPGNDAK([AEEA-AEEA-γGlu-Trx-C20 diacid])PEQLAQYAADLRRYINLVTRPRY-NH2; N-terminus and C-terminus assumed)
EC50 (Y4 receptor): 18 nM

Compound: CC(C)C[C@H](NC(=O)[C@H](CCC(N)=O)NC(=O)[C@H](CCC(=O)O)NC(=O)[C@@H]1CCCN1C(=O)[C@H](CCCCNC(=O)COCCOCCNC(=O)COCCOCCNC(=O)CC[C@H](NC(=O)[C@H]1CC[C@H](CNC(=O)CCCCCCCCCCCCCCCCCCC(=O)O)CC1)C(=O)O)NC(=O)[C@H](C)NC(=O)[C@H](CC(N)=O)NC(=O)[C@H](CC(=O)O)NC(=O)CNC(=O)[C@@H]1CCCN1C(=O)[C@H](Cc1ccc(O)cc1)NC(=O)[C@@H](NC(=O)[C@@H]1CCCN1C(=O)[C@H](CCC(=O)O)NC(=O)[C@H](CC(C)C)NC(=O)[C@@H]1CCCN1C(=O)[C@H](C)N)C(C)C)C(=O)N[C@@H](C)C(=O)N[C@@H](CCC(N)=O)C(=O)N[C@@H](Cc1ccc(O)cc1)C(=O)N[C@@H](C)C(=O)N[C@@H](C)C(=O)N[C@@H](CC(=O)O)C(=O)N[C@@H](CC(C)C)C(=O)N[C@@H](CCCNC(=N)N)C(=O)N[C@@H](CCCNC(=N)N)C(=O)N[C@@H](Cc1ccc(O)cc1)C(=O)N[C@@H](CC(C)C)C(=O)N[C@@H](CC(N)=O)C(=O)N[C@H](C(=O)N[C@@H](CC(C)C)C(=O)N[C@H](C(=O)N[C@@H](CCCNC(=N)N)C(=O)N[C@@H](CCC(N)=O)C(=O)N[C@@H](CCCNC(=N)N)C(=O)N[C@@H](Cc1ccc(O)cc1)C(N)=O)[C@@H](C)O)C(C)C [SEQ ID NO: 15, N-epsilon13-[2-(2-{2-[2-(2-{2-[(S)-4-Carboxy-4-({trans-4-[(19-carboxynonadecanoylamino)methyl]cyclohexanecarbonyl}amino)butyrylamino]-eth-oxy}ethoxy)acetylamino]ethoxy}ethoxy)acetyl][Lys13,Leu17,Leu28,Val30,Gln34]hPP(1-36)] (H-APLEPVYPGDNAK([AEEA-AEEA-γGlu-Trx-C20 diacid])PEQLAQYAADLRRYLNVLTRQRY-NH2; N-terminus and C-terminus assumed)
EC50 (Y4 receptor): 7 nM

Compound: CC[C@H](C)[C@H](NC(=O)[C@H](Cc1ccc(O)cc1)NC(=O)[C@H](CCCNC(=N)N)NC(=O)[C@H](CCCNC(=N)N)NC(=O)[C@H](CC(C)C)NC(=O)[C@H](CC(=O)O)NC(=O)[C@H](C)NC(=O)[C@H](C)NC(=O)[C@H](Cc1ccc(O)cc1)NC(=O)[C@H](CCC(N)=O)NC(=O)[C@H](C)NC(=O)[C@H](CC(C)C)NC(=O)[C@H](CCC(N)=O)NC(=O)[C@H](CCC(=O)O)NC(=O)[C@@H]1CCCN1C(=O)[C@@H](NC(=O)[C@H](C)NC(=O)[C@H](CC(N)=O)NC(=O)[C@H](CC(=O)O)NC(=O)CNC(=O)[C@@H]1CCCN1C(=O)[C@H](Cc1ccc(O)cc1)NC(=O)[C@@H](NC(=O)[C@@H]1CCCN1C(=O)[C@H](CCC(=O)O)NC(=O)[C@H](CC(C)C)NC(=O)[C@@H]1CCCN1C(=O)[C@H](C)NC(=O)COCCOCCNC(=O)COCCOCCNC(=O)CC[C@H](NC(=O)[C@H]1CC[C@H](CNC(=O)CCCCCCCCCCCCCCCCCCC(=O)O)CC1)C(=O)O)C(C)C)[C@@H](C)O)C(=O)N[C@@H](CC(N)=O)C(=O)N[C@@H](CC(C)C)C(=O)N[C@@H](CC(C)C)C(=O)N[C@H](C(=O)N[C@@H](CCCNC(=N)N)C(=O)N1CCC[C@H]1C(=O)N[C@@H](CCCNC(=N)N)C(=O)N[C@@H](Cc1ccc(O)cc1)C(N)=O)[C@@H](C)O [SEQ ID NO: 75, N-alfa-[2-(2-{2-[2-(2-{2-[(S)-4-Carboxy-4-({trans-4-[(19-carboxynonadecanoylamino)methyl]cyclohexanecarbonyl}amino)butyrylamino]-ethoxy}ethoxy)acetylamino]ethoxy}ethoxy)acetyl][Leu17,Leu30]hPP1-36] ({C20 diacid-Trx-γGlu-AEEA-AEEA}-APLEPVYPGDNATPEQLAQYAADLRRYINLLTRPRY-NH2; C-terminus assumed)
EC50 (Y2 receptor): > 1000 nM
half-life ([1]; in vivo, 10 nmol/kg): 48 h

EC50 (Y2 receptor; Table 2, PP analogues, ACTOne HEK-293 cells, read-out: Y2 cAMP EC50): > 1000 nM
half-life ([1]; 50 nmol/kg): 0.55 h
Compound: PLEPVYPGDNATPEQLAQYAADLRRYINLLTRPRY-NH2 (C-terminus assumed) [SEQ ID NO: 73, [Leu17,Leu30]hPP2-36, reference compound]
